Experimental data from US12116355B2, “Deuterated 1-piperazino-3-phenyl indanes for treatment of schizophrenia” (H. Lundbeck A/S, priority 2011, dated 2024).
Where two headings read alike, the source gives them in different places.

Key:
5-HT2 = conditions: J. Med. Chem. 1995, 38, 4380-4392; cited from earlier work
catalepsy in rats [1] = conditions: fumarate salt, J. Med. Chem. 1995, 38, 4380-4392; cited from earlier work
D1 = conditions: in vitro, J. Med. Chem. 1995, 38, 4380-4392; cited from earlier work
D2 = conditions: in vitro, J. Med. Chem. 1995, 38, 4380-4392; cited from earlier work
[2] = Human pharmacokinetic multiple oral dose study; assay type: in vivo; conditions: male, healthy young men, 3 mg daily oral for 18 days, plasma after last dose, read-out: mean AUC 0-24 of parent compound
Source text: The pharmacokinetics of Compound (IV) and Compound (X) were compared in a multiple oral dose study in healthy young men.

[3] = Metabolism in pooled human liver microsomes, formation of desmethyl metabolite; assay type: in vitro ADME
Protocol: Pooled human liver microsomes (50 donors, from Xenotech) were incubated with 1 μM or 10 μM of compound at 37° C. […] The protein concentration was 0.2 mg/mL and the final volume was 0.5 mL. Following a 10-minute pre-incubation, the reaction was initiated by adding Compound. After 0, 15, 30, 60, 90, 120, and 180 minutes, the reactions were terminated by transferring the subcellular fraction to 0.5 mL of stopping reagent containing internal standard. The incubations were carried out in triplicate. The samples were centrifuged at 4000 g (4° C., 15 min) and the supernatants were analyzed by HPLC-MS/MS. Data were expressed as MS area relative to an internal standard.

[4] = target: recombinant human liver CYP2C19 (Homo sapiens (Human), UniProt P33261); assay: Metabolism by recombinant human liver CYP2C19; assay type: in vitro ADME
Chain of recombinant human liver CYP2C19 (P33261 whole entry): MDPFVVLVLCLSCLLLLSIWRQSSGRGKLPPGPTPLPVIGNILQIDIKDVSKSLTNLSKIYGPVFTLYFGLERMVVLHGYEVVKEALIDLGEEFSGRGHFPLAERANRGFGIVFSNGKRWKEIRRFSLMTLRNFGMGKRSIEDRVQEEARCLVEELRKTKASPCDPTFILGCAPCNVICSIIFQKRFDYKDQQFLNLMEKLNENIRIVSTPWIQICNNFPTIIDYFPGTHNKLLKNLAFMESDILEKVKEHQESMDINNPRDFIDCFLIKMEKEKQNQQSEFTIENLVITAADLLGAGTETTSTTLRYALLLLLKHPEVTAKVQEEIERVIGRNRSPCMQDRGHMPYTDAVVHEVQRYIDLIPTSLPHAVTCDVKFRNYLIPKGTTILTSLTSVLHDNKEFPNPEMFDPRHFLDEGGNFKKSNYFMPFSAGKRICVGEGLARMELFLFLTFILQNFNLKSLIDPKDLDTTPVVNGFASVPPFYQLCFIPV
Protocol: (§1) The protein concentration was 0.5 mg/mL and the final volume was 0.5 mL. […] After 0, 15, 30, 60, 90, 120, and 180 minutes, the reactions were terminated by transferring the subcellular fraction to 0.5 mL of stopping reagent containing internal standard. The incubations were carried out in triplicate. The samples were centrifuged at 4000×g (4° C., 15 minutes) and the supernatants were analyzed by HPLC-MS/MS. Data were expressed as MS area relative to an internal standard.

[5] = target: recombinant human liver CYP3A4 (Homo sapiens (Human), UniProt P08684); assay: Metabolism by recombinant human liver CYP3A4; assay type: in vitro ADME
Chain of recombinant human liver CYP3A4 (P08684 whole entry): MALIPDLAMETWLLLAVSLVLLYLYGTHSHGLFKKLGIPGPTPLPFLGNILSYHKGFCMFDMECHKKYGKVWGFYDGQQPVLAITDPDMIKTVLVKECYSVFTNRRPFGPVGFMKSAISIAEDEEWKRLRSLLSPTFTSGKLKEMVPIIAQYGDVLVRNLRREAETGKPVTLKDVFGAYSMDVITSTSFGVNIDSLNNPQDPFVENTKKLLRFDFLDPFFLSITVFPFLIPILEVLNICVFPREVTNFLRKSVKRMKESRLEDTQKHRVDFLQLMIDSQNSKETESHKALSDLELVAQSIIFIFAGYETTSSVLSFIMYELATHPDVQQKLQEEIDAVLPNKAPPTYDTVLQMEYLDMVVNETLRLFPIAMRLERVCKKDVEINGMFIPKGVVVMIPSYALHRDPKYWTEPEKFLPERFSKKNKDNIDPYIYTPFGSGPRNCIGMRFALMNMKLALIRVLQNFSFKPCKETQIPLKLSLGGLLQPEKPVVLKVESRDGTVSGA
Protocol: as §1

[6] = test system: D2 receptors in rat brain; assay: In vivo binding to D2 receptors in rat brain; conditions: 20 mg/kg subcutaneous 30 minutes before [3H]-raclopride i.v.
Protocol: Description of In Vivo Binding to D2 Receptors in Rat Brain
Briefly, 6 rats (male Wistar, 180-200 g) were treated with 20 mg/kg test compound subcutaneous 30 minutes before receiving 9.4 micro Ci [^3H]-raclopride intravenously via the tail vein.
15 minutes after the injection of the radio ligand, the animals were killed by cervical dislocation, the brain quickly removed, and striatum and cerebellum dissected out and homogenized in 5 mL (cerebellum in 20 mL) ice-cold buffer (50 mM K3PO4, pH 7.4). 1.0 mL of the homogenate was filtered through 0.1% PEI-soaked Whatman GF/C filters. This was completed within 60 seconds subsequent to the decapitation. Filters were washed 2 times with 5 mL ice-cold buffer and counted in a scintillation counter. A group of vehicle-treated animals was used to determine [^3H]-raclopride total binding in striatum and non-specific binding in cerebellum.

[7] = pKa determination by potentiometric titration / Dip Probe Absorption Spectroscopy; assay type: physicochemical; conditions: ion strength 0.16, extrapolated to zero MeOH
Protocol: pKa was determined by potentiometric titration of the base at ion strength 0.16 using MeOH as co-solvent. Three series of three repeated titrations on the same solution of the sample was performed in a conventional way from low to high pH and a difference curve was created from each of these titrations by blank subtraction. The apparent pKa-value at each MeOH:water ratio is calculated from the difference curves, and the pKa value is determined by extrapolation to zero MeOH content.
The lower pKa was determined by Dip Probe Absorption Spectroscopy detection during titration of the base at ion strength 0.16 using MeOH as co-solvent. The change in absorption spectra as a function of ionisation is used to calculate the pKa value. Two series of three repeated titrations on the same solution of the sample was performed from low to high pH, with a photo diode array as additional detection. The apparent pKa value at each MeOH:water ratio is calculated by target factor analysis on the change in absorption spectra, and the pKa value is determined by extrapolation to zero MeOH content.

[8] = Log P / log D profile by titration with n-octanol; assay type: physicochemical; conditions: n-octanol:water, 27° C., ion strength approximately 0.16
Protocol: A series of three repeated titrations on the same sample in solution was performed, from low to high pH. The first titration was performed with a small amount of n-octanol present in the solution, the second and third with increasing amounts.
A difference curve was created from each of these titrations by blank subtraction, and from these difference curves, the apparent pKa values (poKa) were calculated. From the change in the apparent pKa values (ΔpKa) with the n-octanol:water ratio combined with the real pKa value, the Log P value was calculated and the Log D profile was derived.

[9] = Solubility of salts of Compound (IV); assay type: physicochemical
catalepsy in rats [10] = assay: Catalepsy test in rats; assay type: in vivo, rats (male Sprague Dawley); conditions: tartrate s.c. 30 minutes before test
Source text: Catalepsy is thought to reflect drug-induced suppression of the ability to initiate a behavioral response. The catalepsy test in rats is a common and widely used preclinical screening test for the EPS liability of potentially antipsychotic drugs. Although catalepsy is usually assessed following acute drug administration, the test has proven to be a reliable predictor for the propensity of an antipsychotic drug to induce EPS (that is, pseudo parkinsonism, dystonia) in humans (Elliott, P. J. et al, J. Neural. Transm. Park. Dis. Dement. Sect. 1990, 2, 79-89; herein incorporated by reference in its entirety). […] The minimal effective dose inducing catalepsy was 10 mg/kg (FIG. 17). […] Eight male Sprague Dawley rats were used in each group. # indicates P<0.05, ## indicates P<0.01 versus vehicle (One-way ANOVA followed by Bonferroni post-hoc test). This dose is 100 times higher than the dose indicating antipsychotic activity (FIG. 16).

[11] = test system: PCP-induced hyperactivity in mice; assay: PCP-induced hyperactivity in mice; conditions: hydrogen tartrate s.c. 30 minutes before test, PCP 2.3 mg/kg s.c.
Protocol: Locomotor activity was measured for 60 minutes as number of beam breaks (counts). Eight-to-16 male mice were used in each group. ##indicates P<0.01 versus Vehicle-PCP (One-way analysis of variance [ANOVA] followed by Bonferroni post-hoc test).

[12] = test system: cryopreserved dog hepatocytes; assay: Metabolism in cryopreserved dog hepatocytes, formation of desmethyl metabolite; assay type: in vitro ADME, dog (male Beagle dog); conditions: for amount of desmethyl metabolite (Compound (XI)) produced, versus Compound (X): cryopreserved dog hepatocytes
Protocol: Cryopreserved dog (male Beagle dog) hepatocytes (1 million cells/mL in suspension, 50 μL/well) were pre-incubated for 15 minutes in a 96-well plate at 37° C. water bath in DMEM high glucose buffered with 1 M HEPES.

AUC(0-t) [2] [ng·h/mL]	amount of desmethyl metabolite produced, versus Compound (X) ([3]; 1 μM)	amount of desmethyl metabolite produced, versus Compound (X) ([3]; 10 μM)	amount of desmethyl metabolite produced, versus Compound (X) ([4]; 1 μM)	amount of desmethyl metabolite produced, versus Compound (X) ([4]; 10 μM)	amount of desmethyl metabolite produced, versus Compound (X) ([5]; 1 mM (so in the source))	amount of desmethyl metabolite produced, versus Compound (X) ([5]; 10 mM (so in the source))	SMILES	occupancy of D2 receptors by in vivo binding [6] [%]	also measured
98	–	–	–	–	–	–	CN1CCN([C@@H]2C[C@@H](c3ccccc3)c3ccc(Cl)cc32)CC1(C)C [Compound (X), 4-((1R,3S)-6-Chloro-3-phenyl-indan-1-yl)-1,2,2-trimethyl-piperazine]	–	5-HT2 antagonism (5-HT2): potent 5-HT2 antagonist; catalepsy in rats (catalepsy in rats [1]): does not induce catalepsy; D1 antagonism (D1): potent D1/D2 antagonist; D2 antagonism (D2): potent D1/D2 antagonist
–	lower	lower	Corresponding results	lower	lower	lower	[2H]c1c([2H])c([2H])c([C@@H]2C[C@@H](N3CCN(C)C(C)(C)C3)c3cc(Cl)ccc32)c([2H])c1[2H] (single isomer, unassigned) [Compound (II)]	75	–
104	lower	lower	lower	Corresponding results	lower	lower	[2H]c1c([2H])c([2H])c([C@@H]2C[C@@H](N3CCN(C([2H])([2H])[2H])C(C)(C)C3)c3cc(Cl)ccc32)c([2H])c1[2H] (single isomer, unassigned) [Compound (IV)]	70	pKa ([7]; Dip Probe Absorption Spectroscopy, read-out: lower pKa): 2.5 ± 0.1; pKa ([7]; potentiometric titration, read-out: high pKa): 8.9 ± 0.1; logP [8]: 5.4 ± 0.4; logD ([8]; pH 7.4, read-out: Log D7.4): 3.9 ± 0.4; solubility ([9]; pH 7.6): 100 µg/mL; pH of solubility solution ([9]; salts of Compound (IV)): 7.6; induction of catalepsy (catalepsy in rats [10]): dose-dependently induced catalepsy; minimal effective dose inducing catalepsy (catalepsy in rats [10]): 10 mg/kg
–	–	–	–	–	–	–	CN1CCN([C@@H]2C[C@@H](c3ccccc3)c3ccc(Cl)cc32)CC1(C)C (single isomer, unassigned) [Compound (IV)]	–	reversal of PCP-induced hyperactivity (locomotor activity) [11]: dose-dependently reverses
–	–	–	–	–	–	–	[2H]C([2H])([2H])N1CCN([C@@H]2C[C@@H](c3ccccc3)c3ccc(Cl)cc32)CC1(C)C [Compound (I), 4-((1R,3S)-6-chloro-3-phenyl-indan-1-yl)-1-methyl-d3-2,2-dimethyl-piperazine]	–	amount of desmethyl metabolite (Compound (XI)) produced, versus Compound (X) ([12]; 0.1 μM): lower; amount of desmethyl metabolite (Compound (XI)) produced, versus Compound (X) ([12]; 1 μM): lower; decrease in formation of the desmethyl metabolite (Compound (XI)) in comparison to Compound (X) ([12]; dog hepatocytes): approximately 50%
